{
  "source": "patent US4880779A",
  "about": "“Method of prevention or treatment of AIDS by inhibition of human immunodeficiency virus” (priority 1987, dated 1989)",
  "key": {"[1]": {"tested_on": "human immunodeficiency virus (HIV)", "experiment": "HIV-induced cell fusion: RH9 cells mixed with HIV-infected lymphoblasts", "format": "cell-based", "details": "for activity as inhibitor of HIV-induced cell fusion: RH9 + HIV-infected cells; for Polykaryocytes Mean Diameter / Polykaryocytes Per mm^2: RH9 + HIV-RH9", "procedure": "(§1) The commercially available peptides, carbobenzoxy-D- Phe-L-Phe-Gly (z-PPG) and Phe-Gly-Gly-Phe (PGGP) were obtained from Sigma Chemical Company, St. Louis, MO in granular form. Stock solutions were prepared to 20 mg/ml in dimethyl sulfoxide and stored at 0° C. A line of uninfected human lymphoblasts, RH9, and a line of lymphoblasts persistently infected with human immunodeficiency virus (HIV) were obtained from Dr. Robert Garry of Tulane Medical Center, New Orleans, La. and grown in RPMI medium containing 10% fetal calf serum obtained from Gibco, Grand Island, N.Y.\nIn the experimental protocol, RH9 cells are pretreated with various concentrations of either z-PPG or PGGP by adding a small aliquot of the peptide/DMSO solution to a suspension culture. After 1 hour, a suspension culture containing one-half the number of HIV-infected cells are added to the RH9-peptide mixture. The mixture is then incubated at 37° C. for 18 hours, and examined periodically for induction of cell fusion in the cell mixture."}, "uninfected RH9 cells": {"tested_on": "uninfected RH9 cells", "procedure": "as §1\nTo test this further incubated cultures of either uninfected RH9 cells, or HIV-infected carrier cultures, were incubated with PGGP for four days."}},
  "note": "Where a SMILES comes first, the peptide text is derived from it.",
  "data": [
    {"compound": "z-Phe-Leu [x-Phe-Leu, reference compound]", "values": [
      {"measurement": "activity as inhibitor of HIV-induced cell fusion", "setting": "[1]", "result": "no demonstrable activity"},
      {"measurement": "activity as inhibitor of HIV-induced cell fusion", "setting": "[1]; listed as z-Phe-Leu", "result": "ineffective"}
    ]},
    {"compound": "N[C@@H](Cc1ccccc1)C(=O)NCC(=O)NCC(=O)N[C@@H](Cc1ccccc1)C(=O)O", "note": "[PGGP, Phe-Gly-Gly-Phe] (H-FGGF-OH)", "values": [
      {"measurement": "effect on rate of growth, final cell density or cell viability", "setting": "uninfected RH9 cells", "result": "no significant effect"}
    ]},
    {"compound": "z-Phe-Gly [reference compound]", "values": [
      {"measurement": "activity as inhibitor of HIV-induced cell fusion", "setting": "[1]", "result": "no demonstrable activity"}
    ]},
    {"compound": "carbobenzoxy-D- Phe-L-Phe-Gly [z-PPG]", "values": [
      {"measurement": "Polykaryocytes Mean Diameter", "setting": "[1]; 0.08 M peptide", "result": 51, "unit": "um"},
      {"measurement": "Polykaryocytes Per mm^2", "setting": "[1]; 0.08 M peptide", "result": 105, "unit": "per mm^2"},
      {"measurement": "Polykaryocytes Mean Diameter", "setting": "[1]; 0.25 M peptide", "result": 37, "unit": "um"},
      {"measurement": "Polykaryocytes Per mm^2", "setting": "[1]; 0.25 M peptide", "result": 59, "unit": "per mm^2"},
      {"measurement": "Polykaryocytes Mean Diameter", "setting": "[1]; 0.8 M peptide", "result": 26, "unit": "um"},
      {"measurement": "Polykaryocytes Per mm^2", "setting": "[1]; 0.8 M peptide", "result": 4, "unit": "per mm^2"},
      {"measurement": "inhibition of fusion (phase photomicrographs, FIG. 1)", "setting": "[1]; approximtely 1 mM peptide, 1 hour pretreatment of RH9, 18 hours at 37° C.", "result": "almost complete inhibition of fusion"},
      {"measurement": "minimal inhibitory dose", "setting": "[1]; inhibition of cell fusion under these experimental conditions, 18 hours", "result": 0.3, "unit": "mM"}
    ]}
  ]
}
